# According to patent US11078222B2, “Hydroxybenzoic acid derivatives, methods and uses thereof” (UNiVERSIDADE DO PORTO, priority 2016, dated 2021):
# How the values were obtained:
# [1] = tested on: rat liver mitochondria (RLM); experiment: Mitochondrial transmembrane electric potential (safranine fluorescence); format: biochemical
# Description: In an embodiment, and as an example, the toxicity effects of some AntiOxBENs and MitoQ on the mitochondrial bioenergetics, namely on RLM Δψ and respiration parameters, were measured. The Δψ represents the main component of the electrochemical gradient generated by mitochondrial respiration and accounts for more than 90% of the total available energy. For mitochondrial respiration assays, glutamate/malate (for complex I) and succinate (for complex II) were used as substrates. In addition, the mitochondrial oxidative phosphorylation coupling index, known as respiratory control ratio (RCR, state 3/state 4 respiration) and ADP/O index (the coupling between ATP synthesis and oxygen consumption) were also calculated. AntiOxBENs and MitoQ were tested at antioxidant-relevant concentrations, with 10 μM being the highest concentration.
# In an embodiment, the evaluation of AntiOxBENs effect on mitochondrial transmembrane electric potential (Δψ) was performed as follows: the mitochondrial transmembrane electric potential (Δψ) was estimated through the evaluation of fluorescence changes of safranine (5 μM) and was recorded on a spectrofluorometer operating at excitation and emission wavelengths of 495 and 586 nm, with a slit width of 5 nm. Increasing concentrations of AntiOxBENs (2.5-10 μM) were added to the reaction medium (200 mM sucrose, 1 mM KH2PO^4, 10 mM Tris (pH 7.4) and 10 μM EGTA) containing respiratory substrates glutamate/malate (5 mM and 2.5 mM respectively) or succinate (5 mM) and RLM (0.5 mg in 2 mL final volume) and allowed to incubate for a 5 min period prior to initiate the assay, at 25° C. In this assay, safranine (5 μM) and ADP (25 nmol) were used to initiate the assay and to induce depolarization, respectively. Then, 1 μM FCCP was added at the end of all experiments to depolarize mitochondria. Δψ was calculated using a calibration curve obtained when RLM were incubated in a K^+-free reaction medium containing 200 mM sucrose, 1 mM NaH2PO4, 10 mM Tris (pH 7.4) and 10 μM EGTA, supplemented with 0.4 μg valinomicin. […] “Repolarization” corresponded to the recovery of membrane potential after the complete phosphorylation of ADP added. Lag phase reflected the time required to phosphorylate the added ADP. Isolated RLM developed a Δψ≈226 mV and Δψ≈202 mV (negative inside) when glutamate/malate or succinate were used, respectively. Data are means±SEM of five independent experiments.
# [2] = tested on: rat liver mitochondria (RLM) membranes; experiment: RLM lipid peroxidation, TBARS assay (FeSO4/H2O2/ascorbate); details: 5 μM, FeSO4/H2O2/ascorbate
# [3] = tested on: human hepatocellular carcinoma cells (HepG2); experiment: Cytotoxicity, SRB method; format: cell-based
# Description: In an embodiment, and as an example, the cytotoxicity of AntiOxBENs was assessed using monolayer cultures of human hepatocytes from hepatocellular carcinoma (HepG2) and SRB method (FIG. 8).
# In an embodiment, the cytotoxicity profile of AntiOxBENs was evaluated in human hepatocellular carcinoma HepG2 cells. Human hepatocellular carcinoma HepG2 cells were cultured in high-glucose medium composed by Dulbecco's modified Eagle's medium (DMEM; D5648) supplemented with sodium pyruvate (0.11 g/L), sodium bicarbonate (1.8 g/L) and 10% fetal bovine serum (FBS) and 1% of antibiotic penicillin-streptomycin 100× solution. Cells were maintained at 37° C. in a humidified incubator with 5% CO2. HepG2 cells were seeded at density of 4×10^4 cells/mL and grown for 24 hours before treatment.
# In an embodiment the cytotoxicity screening was performed as follows: cells were placed on 48-well plate (2×10^4 cells/500 μL) and then were incubated during 48 hour with AntiOxBENs concentrations ranging 25 μM to 500 μM. After incubation, sulforhodamine B (SRB) assay was used for cell density determination based on the measurement of cellular protein content. Briefly, after incubation, the medium was removed and wells rinsed with PBS […]. Cells were fixed by adding 1% acetic acid in 100% methanol for at least 2 hours at −20° C. Later, the fixation solution was discarded and the plates were dried in an oven at 37° C. Two hundred and fifty microliters of 0.5% SRB in 1% acetic acid solution was added and incubated at 37° C. for 1 h. The wells were then washed with 1% acetic acid in water and dried. Then, 500 μl of Tris (pH 10) was added and the plates were stirred for 15 min. Finally, 200 μl of each supernatant was transferred in 96-well plates and optical density was measured at 540 nm. Data are means±SEM of four independent experiments and the results are expressed as percentage of control (control=100%), which represents the cell density without any treatment in the respective time point.
# [4] = DPPH radical scavenging activity (total antioxidant capacity); format: biochemical; details: ethanol, 515 nm, 45 min
# Description: The radical scavenging activity of AntiOxClNs was evaluated by means of total antioxidant capacity assays based on DPPH., ABTS.^+ and GO. radicals. All these methods involved the spectrophotometric measurement of the absorbance decrease resulting from radical (DPPH., ABTS.^+ or GO.) deactivation with an antioxidant. The results were expressed in IC50, which is defined as the minimum antioxidant concentration necessary to reduce the amount of radical by 50%. Antioxidant assays were performed in a multiplate reader (Powerwave XS Microplate Reader) from Bio Tech instruments.
# A DPPH ethanolic solution (6.85 mM) was also prepared and then diluted to reach the absorbance of 0.72±0.02 at 515 nm. Each compound solution (20 μL) was added to 180 μL of DPPH. solution in triplicate, and the absorbance at 515 nm was recorded minutely over 45 minutes. […] Dose-response curves were established for the determination of IC50 values.
SMILES,"ADP-induced depolarization (ΔΨ in - mV) ([1]; Glutamate/Malate, 2.5 μM)","Lag Phase ([1]; Glutamate/Malate, 2.5 μM) [s]","Maximum potential (ΔΨ in - mV) ([1]; Glutamate/Malate, 2.5 μM)","Repolarization Potential (ΔΨ in - mV) ([1]; Glutamate/Malate, 2.5 μM)","ADP-induced depolarization (ΔΨ in - mV) ([1]; Glutamate/Malate, 5 μM)","Lag Phase ([1]; Glutamate/Malate, 5 μM) [s]","Maximum potential (ΔΨ in - mV) ([1]; Glutamate/Malate, 5 μM)","Repolarization Potential (ΔΨ in - mV) ([1]; Glutamate/Malate, 5 μM)","ADP-induced depolarization (ΔΨ in - mV) ([1]; Glutamate/Malate, 10 μM)","Lag Phase ([1]; Glutamate/Malate, 10 μM) [s]","Maximum potential (ΔΨ in - mV) ([1]; Glutamate/Malate, 10 μM)","Repolarization Potential (ΔΨ in - mV) ([1]; Glutamate/Malate, 10 μM)","ADP-induced depolarization (ΔΨ in - mV) ([1]; Succinate, 2.5 μM)","Lag Phase ([1]; Succinate, 2.5 μM) [s]","Maximum potential (ΔΨ in - mV) ([1]; Succinate, 2.5 μM)","Repolarization Potential (ΔΨ in - mV) ([1]; Succinate, 2.5 μM)","ADP-induced depolarization (ΔΨ in - mV) ([1]; Succinate, 5 μM)","Lag Phase ([1]; Succinate, 5 μM) [s]","Maximum potential (ΔΨ in - mV) ([1]; Succinate, 5 μM)","Repolarization Potential (ΔΨ in - mV) ([1]; Succinate, 5 μM)",further results
"O=C(NCCCCCC[P+](c1ccccc1)(c1ccccc1)c1ccccc1)c1ccc(O)c(O)c1.[Br-] [AntiOxBEN1, 6-(3,4-dihydroxybenzamido)hexyltriphenylphosphonium bromide]",199.5 ± 16.6 - mV,131.8 ± 18.9,216.8 ± 18.9 - mV,212.3 ± 18.2 - mV,209.4 ± 20.3 - mV,137.8 ± 22.5,224.8 ± 24.7 - mV,219.0 ± 22.9 - mV,192.6 ± 15.0 - mV,148.7 ± 48.4,200.4 ± 16.0 - mV,199.4 ± 17.1 - mV,180.3 ± 17.1 - mV,120.0 ± 32.1,191.4 ± 18.2 - mV,190.3 ± 17.4 - mV,175.4 ± 12.9 - mV,93.6 ± 29.2,184.9 ± 13.1 - mV,181.0 ± 13.5 - mV,"ADP-induced depolarization (ΔΨ in - mV) ([1]; Succinate, 10 μM): 182.4 ± 14.4 - mV; Lag Phase ([1]; Succinate, 10 μM): 105.0 ± 28.1 s; Maximum potential (ΔΨ in - mV) ([1]; Succinate, 10 μM): 188.9 ± 14.8 - mV; Repolarization Potential (ΔΨ in - mV) ([1]; Succinate, 10 μM): 188.8 ± 15.8 - mV; prevention of TBARS formation / mitochondria lipid peroxidation [2]: not effective; toxicity / effect on HepG2 cell proliferation ([3]; HepG2, 48 hour, 25 μM to 500 μM, SRB): small inhibition of cell proliferation for lower concentrations; concentrations at which cell proliferation was stimulated ([3]; HepG2, 48 hour, SRB): higher than 100 μM; IC50 [4]: 27.3 µM"
"O=C(NCCCCCC[P+](c1ccccc1)(c1ccccc1)c1ccccc1)c1cc(O)c(O)c(O)c1.[Br-] [AntiOxBEN2, 6-(3,4,5-trihydroxybenzamido)hexyltriphenylphosphonium bromide]",200.5 ± 17.5 - mV,124.7 ± 19.2,217.8 ± 18.8 - mV,216.8 ± 17.9 - mV,194.9 ± 15.6 - mV,147.5 ± 31.2,212.2 ± 19.8 - mV,209.0 ± 17.8 - mV,200.1 ± 18.2 - mV,146.2 ± 30.9,209.5 ± 19.1 - mV,208.4 ± 18.6 - mV,184.5 ± 19.2 - mV,115.4 ± 21.0,197.6 ± 18.2 - mV,193.6 ± 17.8 - mV,191.2 ± 17.8 - mV,118.0 ± 26.4,204.6 ± 18.1 - mV,200.4 ± 17.0 - mV,"ADP-induced depolarization (ΔΨ in - mV) ([1]; Succinate, 10 μM): 190.9 ± 16.8 - mV; Lag Phase ([1]; Succinate, 10 μM): 124.8 ± 37.2 s; Maximum potential (ΔΨ in - mV) ([1]; Succinate, 10 μM): 199.8 ± 16.0 - mV; Repolarization Potential (ΔΨ in - mV) ([1]; Succinate, 10 μM): 198.6 ± 17.2 - mV; prevention of TBARS formation / mitochondria lipid peroxidation [2]: most effective; concentrations at which cell proliferation was stimulated ([3]; HepG2, 48 hour, SRB): lower than 250 μM; IC50 [4]: 18.3 µM"
"O=C(CCCCC[P+](c1ccccc1)(c1ccccc1)c1ccccc1)NCCCCCCNC(=O)c1cc(O)c(O)c(O)c1.[Br-] [AntiOxBEN3, [5-(6-(3,4,5-trihydroxybenzamido)hexylamino)carbonylpentyl]triphenylphosphonium bromide]",202.9 ± 18.7 - mV,137.5 ± 20.3,221.1 ± 20.2 - mV,217.0 ± 17.7 - mV,204.5 ± 21.6 - mV,154.5 ± 21.5,221.4 ± 22.6 - mV,216.4 ± 21.3 - mV,216.4 ± 25.3 - mV,143.0 ± 21.7,227.5 ± 26.3 - mV,222.9 ± 25.4 - mV,188.0 ± 19.7 - mV,132.6 ± 22.7,203.6 ± 16.6 - mV,198.4 ± 18.4 - mV,191.1 ± 20.0 - mV,119.8 ± 32.2,205.3 ± 19.4 - mV,199.1 ± 19.2 - mV,"ADP-induced depolarization (ΔΨ in - mV) ([1]; Succinate, 10 μM): 198.2 ± 19.3 - mV; Lag Phase ([1]; Succinate, 10 μM): 114.4 ± 24.3 s; Maximum potential (ΔΨ in - mV) ([1]; Succinate, 10 μM): 207.9 ± 19.3 - mV; Repolarization Potential (ΔΨ in - mV) ([1]; Succinate, 10 μM): 207.5 ± 19.4 - mV; prevention of TBARS formation / mitochondria lipid peroxidation [2]: most effective; concentrations at which cell proliferation was significantly inhibited ([3]; human, 48 h): higher than 250 μM; IC50 [4]: 18.7 µM"
